From ChEMBL document CHEMBL1201862, “PubChem BioAssay data set” (2004) come the findings set out here.

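A five-concentration, 48-hour dose response in 96-well plates underlies each endpoint, interpolated linearly between surrounding concentrations. At the GI50, growth is halved.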 Activity calls are given as the source filed them. No stated cut-off is given here; in the data, active = GI50 up to about 1.1 µM and inactive = higher. Where a SMILES comes first, the peptide text is derived from it. Bridges are numbered along the chain shown (N, C = ends). [ ]: non-standard residue; d: D form. The star is where a group is joined. ξ: configuration not given here. PhAc = O=C(Cc1ccccc1)*; ξP = O=C(O)C1CCCN1

Among the test systems are COLO 205; A498; A549; MDA-N; HT-29; UO-31; T47D; U-251; MDA-MB-231; LOX IMVI; HCC 2998; Hs-578T; PC-3; MDA-MB-435; IGROV-1; KM12; NCI-H460; OVCAR-3; SF-295; SK-OV-3.
Holding throughout (test): inhibition of tumour cell growth, NCI panel, 48 h

Consider `C/C(=N\N=C(N)N)c1c(C(=O)OCCCCCCOC(=O)c2nc3sccn3c2/C(C)=N/N=C(N)N)nc2sccn12`, for which the GI50 in the test on COLO 205 is > 100 µM (inactive); in the test with A498, > 100 µM (inactive); in the test with A549 it was > 100 µM (inactive); with MDA-N, > 100 µM (inactive); with HT-29, > 100 µM (inactive); in the test with UO-31 it was 69.5 µM (inactive). In addition, the GI50 was 16.2 µM (inactive) in the test with T47D; 37.7 µM (inactive) with U-251; > 100 µM (inactive) with MDA-MB-231; 98.2 µM (inactive) in the test with LOX IMVI; > 100 µM (inactive) with HCC 2998; > 100 µM (inactive) in the test on Hs-578T. Moreover, the GI50 in the test on PC-3, in the test on MDA-MB-435, in the test on IGROV-1, in the test on KM12 and in the test with NCI-H460 was > 100 µM (inactive) in each case.

Turning to `Nn1c(Nc2ccc(S(=O)(=O)Nc3ncccn3)cc2)nnc(/C=C/c2c(O)ccc3ccccc23)c1=O`, the GI50 is 15.1 µM (inactive) with OVCAR-3; 25.2 µM (inactive) in the test with A498; 46 µM (inactive) in the test with A549; 31.4 µM (inactive) with MDA-N; 33.9 µM (inactive) in the test with HT-29; 30.5 µM (inactive) with UO-31. Further, the GI50 is 23.8 µM (inactive) in the test on T47D; 31.9 µM (inactive) with U-251; 21.8 µM (inactive) in the test with MDA-MB-231; 30.3 µM (inactive) in the test on LOX IMVI; 23.3 µM (inactive) in the test on HCC 2998; 48.4 µM (inactive) in the test on Hs-578T. In addition, the GI50 in the test with PC-3 was 27.7 µM (inactive); with MDA-MB-435 it was 25.2 µM (inactive); in the test with IGROV-1, 27.5 µM (inactive); with NCI-H460, 23.3 µM (inactive).

Consider `CCCc1nc(Cl)nc(Cl)c1Cl`, for which the GI50 with SF-295 is 2.33 µM (inactive); in the test on COLO 205 it was 0.232 µM (active); in the test on OVCAR-3 it was 0.129 µM (active); in the test with A498, 2.87 µM (inactive); in the test on A549, 2.22 µM (inactive); in the test on MDA-N it was 0.0234 µM (active). Besides, the GI50 is 0.269 µM (active) in the test with HT-29; 0.857 µM (active) with T47D; 0.67 µM (active) in the test on U-251; 3.01 µM (inactive) in the test with SK-OV-3; 0.665 µM (active) with MDA-MB-231; 0.0865 µM (active) in the test on LOX IMVI. For the same compound, the GI50 in the test with HCC 2998 is 1.08 µM (active); in the test on Hs-578T, 0.475 µM (active); in the test on PC-3 it was 0.438 µM (active); with MDA-MB-435, 0.422 µM (active); in the test with IGROV-1 it was 0.807 µM (active); in the test on KM12 it was 0.543 µM (active). Further, the GI50 with NCI-H460 is 0.505 µM (active).

On to `N#CC(=C1CCCCC1)c1nc2ccccc2o1`, for which the GI50 in the test on SF-295 is > 100 µM (inactive); in the test on COLO 205 it was 19.6 µM (inactive); with OVCAR-3 it was 56.5 µM (inactive); with A498 it was > 100 µM (inactive); in the test on A549, 51.1 µM (inactive); in the test with MDA-N it was 74.5 µM (inactive). For the same compound, the GI50 in the test on HT-29 was 61.5 µM (inactive); with UO-31 it was 47.2 µM (inactive); in the test with T47D, 19.4 µM (inactive); with U-251, 57.9 µM (inactive); with SK-OV-3, > 100 µM (inactive); in the test with MDA-MB-231, > 100 µM (inactive). Further, the GI50 in the test with HCC 2998 was 50 µM (inactive); in the test with Hs-578T it was 58.7 µM (inactive); with PC-3, 56.9 µM (inactive); in the test on MDA-MB-435 it was > 100 µM (inactive); in the test with IGROV-1, 83 µM (inactive); in the test on KM12 it was 32 µM (inactive). The GI50 with NCI-H460 is > 100 µM (inactive).

As for `COc1cc(/C=N/n2c(Cc3ccc(Cl)cc3)n[nH]c2=O)cc(OC)c1OC`, the GI50 in the test with SF-295 was > 100 µM (inactive); with COLO 205, > 100 µM (inactive); with OVCAR-3 it was 85.9 µM (inactive); with A498, > 100 µM (inactive); with A549 it was > 100 µM (inactive); with MDA-N it was > 100 µM (inactive). For the same compound, the GI50 in the test with HT-29, in the test on UO-31, in the test with T47D, in the test on U-251, with SK-OV-3 and in the test on MDA-MB-231 was > 100 µM (inactive) each time. Besides, the GI50 in the test on HCC 2998 was 37.7 µM (inactive); in the test with Hs-578T it was 1.32 µM (inactive); in the test on PC-3, > 100 µM (inactive); with MDA-MB-435 it was > 100 µM (inactive); in the test on KM12, 50 µM (inactive); in the test with NCI-H460 it was 33.5 µM (inactive).

On to `O=C(Cc1ccccc1)N[C@@H]1COC(=O)C2CCCN2C(=O)[C@@H]2CCCN2C1=O` (some centres not stated) (PhAc-[dS]-Pro-[ξP]; ester 1-C), for which the GI50 with SF-295, in the test on COLO 205, in the test with OVCAR-3, in the test with A498, with A549 and in the test with MDA-N was > 100 µM (inactive) throughout. The GI50 in the test with HT-29, in the test with T47D, in the test with SK-OV-3, in the test with MDA-MB-231, in the test on LOX IMVI and with HCC 2998 was > 100 µM (inactive) in each case. Also, the GI50 with Hs-578T, in the test on PC-3, in the test with MDA-MB-435, in the test on IGROV-1, in the test with KM12 and in the test with NCI-H460 was > 100 µM (inactive) in each case.

For the compound `CC(NC(=O)OC(C)(C)C)C(=O)C(N)=O` (configuration not stated), the GI50 in the test on COLO 205, with A498, in the test with A549, in the test on MDA-N, with UO-31 and with T47D was > 100 µM (inactive) in each case. The GI50 in the test with U-251, with SK-OV-3, in the test with MDA-MB-231, with LOX IMVI, in the test with HCC 2998 and in the test with Hs-578T was > 100 µM (inactive) each time. Further, the GI50 with PC-3, in the test on MDA-MB-435 and in the test on NCI-H460 was > 100 µM (inactive) in each case.

For the compound `COc1ccc(/C=C/C(=O)c2ccc(Br)cc2)cc1`, the GI50 with SF-295, in the test with COLO 205, with A498, in the test with A549, in the test with MDA-N and with HT-29 was > 100 µM (inactive) in each case. For the same compound, the GI50 is 78.7 µM (inactive) in the test with UO-31; 42.4 µM (inactive) in the test on T47D; > 100 µM (inactive) in the test with U-251; > 100 µM (inactive) with SK-OV-3; > 100 µM (inactive) with MDA-MB-231; > 100 µM (inactive) in the test on HCC 2998. Moreover, the GI50 in the test with Hs-578T is 64.7 µM (inactive); in the test with PC-3, > 100 µM (inactive); in the test with MDA-MB-435, > 100 µM (inactive); in the test on IGROV-1 it was > 100 µM (inactive); with KM12, > 100 µM (inactive); in the test on NCI-H460 it was > 100 µM (inactive).

Turning to `O=C(/C=C/c1ccc([N+](=O)[O-])cc1)c1nc2ccccc2[nH]1`, the GI50 in the test on SF-295 is > 100 µM (inactive); in the test with COLO 205 it was 58.7 µM (inactive); with OVCAR-3, 9.44 µM (inactive); with A498 it was 1.73 µM (inactive); in the test on A549, > 45.9 µM (inactive); in the test with MDA-N, 72.1 µM (inactive). Moreover, the GI50 with HT-29 is 38.5 µM (inactive); in the test with UO-31 it was > 69.8 µM (inactive); in the test with T47D, 29.2 µM (inactive); in the test with U-251, 13.2 µM (inactive); in the test on SK-OV-3 it was > 100 µM (inactive); in the test on MDA-MB-231, 26.9 µM (inactive). Also, the GI50 with LOX IMVI was 24.3 µM (inactive); with Hs-578T, > 45.8 µM (inactive); in the test on PC-3 it was > 64.4 µM (inactive); in the test with MDA-MB-435, > 72.3 µM (inactive); with IGROV-1 it was 1.68 µM (inactive); in the test with KM12 it was 29.9 µM (inactive). For the same compound, the GI50 in the test with NCI-H460 was 11.4 µM (inactive).

Take `O=C(O)CC(Nc1ccccc1)C(=O)O` (configuration not stated): the GI50 in the test on SF-295, with COLO 205, with OVCAR-3, in the test with A498, with A549 and in the test on MDA-N was > 100 µM (inactive) each time. Also, the GI50 in the test on HT-29, in the test on UO-31, in the test with T47D, with U-251, in the test with SK-OV-3 and in the test with MDA-MB-231 was > 100 µM (inactive) throughout. Besides, the GI50 with LOX IMVI, with Hs-578T, in the test on PC-3, in the test on MDA-MB-435, in the test with IGROV-1 and in the test with KM12 was > 100 µM (inactive) throughout. In addition, in the test on NCI-H460, the GI50 is > 100 µM (inactive).

With `C=CCOc1ccc(C(/N=N\c2ccc(Cl)cc2)=N/NC(=O)c2ccccc2)cc1OC`, the GI50 is > 100 µM (inactive) in the test with SF-295; 85.3 µM (inactive) with COLO 205; 62.7 µM (inactive) in the test with OVCAR-3; > 100 µM (inactive) in the test on A498; > 100 µM (inactive) in the test with A549; 35 µM (inactive) in the test on MDA-N. The GI50 with HT-29 was 52.7 µM (inactive); in the test on UO-31, 54.8 µM (inactive); in the test on T47D, 22 µM (inactive); in the test on U-251, 57.3 µM (inactive); in the test with MDA-MB-231 it was > 100 µM (inactive); in the test with LOX IMVI, 48 µM (inactive). Further, the GI50 in the test on HCC 2998 is 39 µM (inactive); in the test with Hs-578T, 73.1 µM (inactive); in the test with PC-3, 49.5 µM (inactive); in the test on MDA-MB-435, 34.7 µM (inactive); in the test with IGROV-1, 43.8 µM (inactive); in the test with KM12 it was 38.5 µM (inactive). Moreover, the GI50 with NCI-H460 is 36.1 µM (inactive).
